Results from publication PMC5608758, “A brain-targeting lipidated peptide for neutralizing RNA-mediated toxicity in Polyglutamine Diseases” (Scientific Reports, 2017).
Entries after “also recorded” stand apart in the source; their conditions may differ. Residues, ends and D or L forms follow the SMILES beside them. *: point of attachment. Palmitoyl = CCCCCCCCCCCCCCCC(=O)*

How the values were obtained:
wild type Drosophila = test: Egg-to-adult viability of wild type flies; type: in vivo; settings: fly food containing 10 or 50 µM peptide, 21.5 °C; 3 independent experiments
Description: Flies were raised at 21.5 °C on cornmeal medium supplemented with dry yeast. Fly lines bearing UAS-DsRed CAG0 and UAS-DsRed CAG100 were kind gifts of Professor Nancy Bonini (University of Pennsylvania, USA). The gmr-GAL4 fly line was obtained from Bloomington Drosophila Stock Center. For pseudopupil assay, third instar larvae were fed with various amount of respective peptides dissolved in 2% sucrose solution for 2 hr and then continued to culture in standard fly food at 21.5 °C[38]. Pseudopupil assay was performed on 12 day-old adult flies as mentioned previously. Images were captured by SPOT Insight CCD camera controlled by the SPOT Advanced software (Diagnostic instruments Inc.). Image processing was performed using the Adobe Photoshop CS software (Adobe). Each experiment was repeated at least 3 times (n = 10 fly heads), and consistent results were obtained. […] Viability from egg-to-adult was calculated as the number of adult flies collected divided by the number of eggs examined. […]
viability of wild type Drosophila from egg to adult. […] Viability from egg to adult was calculated as the number of adult flies collected divided by the number of eggs examined. Data are expressed as mean ± S.E.M. for 3 independent experiments. […]

DsRed CAG100 Drosophila = test: Pseudopupil assay of retinal degeneration; type: in vivo; settings: 1 µM peptide fed to third instar larvae for 2 hr in 2% sucrose; 12 day-old adult flies; mean ± S.E.M.
Description: Flies were raised at 21.5 °C on cornmeal medium supplemented with dry yeast. Fly lines bearing UAS-DsRed CAG0 and UAS-DsRed CAG100 were kind gifts of Professor Nancy Bonini (University of Pennsylvania, USA). The gmr-GAL4 fly line was obtained from Bloomington Drosophila Stock Center. For pseudopupil assay, third instar larvae were fed with various amount of respective peptides dissolved in 2% sucrose solution for 2 hr and then continued to culture in standard fly food at 21.5 °C[38]. Pseudopupil assay was performed on 12 day-old adult flies as mentioned previously. Images were captured by SPOT Insight CCD camera controlled by the SPOT Advanced software (Diagnostic instruments Inc.). Image processing was performed using the Adobe Photoshop CS software (Adobe). Each experiment was repeated at least 3 times (n = 10 fly heads), and consistent results were obtained. For viability test of wild-type flies from egg to adult stage, eggs born within 5 hr were collected and cultured in fly food containing 10 or 50 μM of respective peptides at 21.5°C. Viability from egg-to-adult was calculated as the number of adult flies collected divided by the number of eggs examined. Each experiment was repeated for three times (at least 130 eggs were examined in each group). Two batches of independently synthesized peptides were used in the experiments.

MJD CAG27 RNA = test: Isothermal titration calorimetry binding assay, unexpanded CAG RNA; settings: ITC
Description: Experiments were carried out using a MicroCal iTC200 isothermal titration calorimeter (GE Healthcare) at 25 °C. Data were analyzed using the Origin® scientific plotting software version 7 (Microcal Software Inc.). All RNAs and peptides were dissolved in binding buffer (20 mM MOPS, pH 7.0; 300 mM NaCl) and 0.7 mM of peptide was titrated into 0.5 µM of RNA for each experiment. The concentration of RNA was estimated with appropriate extinction coefficients at 260 nm on a Nanodrop 2000 (Thermo Scientific). A reference power of 8 μcal/s was used with an initial 0.5 µl of injection of peptide followed by 2 µl for all subsequent titrations points with a 60 sec initial equilibrium delay and 150 sec pause between injections. The samples were stirred at a speed of 1000 rpm throughout the experiment. The thermal titration data were fitted to the ‘one binding site model’ to determine the dissociation constant (KD). Each experiment was repeated at least 3 times with consistent results obtained.

| Compound | egg-to-adult viability (wild type Drosophila) | pseudopupil score (DsRed CAG100 Drosophila) | Kd (MJD CAG27 RNA; 0.7 mM P3V8 titrated into 0.5 µM MJD CAG27 RNA, one binding site model, mean ± S.E.M., at least 3 independent experiments) [µM] | lower affinity for unexpanded RNA or expanded CAA/G RNA than for expanded CAG RNA (MJD CAG27 RNA; MJD CAG27 RNA or MJD CAA/G78 RNA versus MJD CAG78 RNA) |
| --- | --- | --- | --- | --- |
| CCCCCCCCCCCCCCCC(=O)N[C@@H](CC(=O)O)C(=O)NCC(=O)N[C@@H](CCCCN)C(=O)N[C@@H](CO)C(=O)N[C@@H](CCCCN)C(=O)NCC(=O)N[C@H](C(=O)N[C@@H](C)C(=O)N[C@@H](Cc1ccc(O)cc1)C(=O)N[C@H](C(=O)N[C@@H](CCC(=O)O)C(=O)N[C@@H](Cc1ccccc1)C(=O)N[C@@H](CCCCN)C(N)=O)[C@@H](C)CC)[C@@H](C)CC [L1P3V8] (Palmitoyl-DGKSKGIAYIEFK-NH2) | did not affect; also recorded: no obvious alteration |  |  |  |
| Ac-DGKSKGIAYIEFK-NH2 [P3V8] |  | 4.32 ± 0.25 | 2.19 ± 0.27 | 6–9 fold |
